Values joined by “and” are separate entries in the source; they are usually repeats but may differ in a detail not shown here. Identical values can stand only once.
How the values were obtained:
[1] = Colorimetric alkylation rate constant assay with thiol N1; assay type: physicochemical; conditions: for remaining [A]: N1 from calibration curve (N1 in uM); for remaining [A] / remaining [B]: in µM
[2] = Colorimetric alkylation rate constant assay with TNB^2− as non-specific thiol; assay type: physicochemical; design: second-order: unit not given here; conditions: for remaining [B]: in µM
[3] = Time 2891 sec, [B]0 = 250, Replicates 1-3
[4] = Time 3071 sec, [B]0 = 250, Replicates 1-3
[5] = Time 3252 sec, [B]0 = 250, Replicates 1-3
[6] = Time 3433 sec, [B]0 = 250, Replicates 1-3
[7] = Time 3613 sec, [B]0 = 250, Replicates 1-3

- remaining [A] ([1]; Replicate 1, time 576 sec): 80.4651
- remaining [B] ([1]; Replicate 1, time 576 sec, [B]0 = 250): 226.345
- remaining [A] ([1]; Replicate 1, time 606 sec): 79.6386
- remaining [B] ([1]; Replicate 1, time 606 sec, [B]0 = 250): 225.519
- remaining [A] ([1]; Replicate 2, time 576 sec): 80.4092
- remaining [B] ([1]; Replicate 2, time 576 sec, [B]0=250): 227.268
- remaining [A] ([1]; Replicate 2, time 606 sec): 79.1621
- remaining [B] ([1]; Replicate 2, time 606 sec, [B]0=250): 226.02
- remaining [A] ([1]; Replicate 3, time 576 sec): 81.6859
- remaining [B] ([1]; Replicate 3, time 576 sec, [B]0=250): 227.139
- remaining [A] ([1]; Replicate 3, time 606 sec): 80.8202
- remaining [B] ([1]; Replicate 3, time 606 sec, [B]0=250): 226.273
- remaining [B] ([1]; time 0 sec, [B]0 = 250, replicates 1-3): 247.836 and 246.58 and 246.712
- remaining [B] ([1]; time 30 sec, [B]0 = 250, replicates 1-3): 246.591 and 244.557 and 245.38
- remaining [B] ([1]; time 60 sec, [B]0 = 250, replicates 1-3): 244.968 and 243.73 and 244.048
- remaining [B] ([1]; time 91 sec, [B]0 = 250, replicates 1-3): 243.804 and 242.562 and 242.8
- remaining [B] ([1]; time 121 sec, [B]0 = 250, replicates 1-3): 243.047 and 241.251 and 241.752
- remaining [B] ([1]; time 151 sec, [B]0 = 250, replicates 1-3): 242.371 and 240.196 and 240.873
- remaining [B] ([1]; time 182 sec, [B]0 = 250, replicates 1-3): 241.478 and 239.142 and 240.023
- remaining [B] ([1]; time 212 sec, [B]0 = 250, replicates 1-3): 240.882 and 238.087 and 239.314
- remaining [B] ([1]; time 242 sec, [B]0 = 250, replicates 1-3): 239.746 and 237.004 and 238.605
- remaining [B] ([1]; time 273 sec, [B]0 = 250, replicates 1-3): 238.772 and 235.921 and 237.868
- remaining [B] ([1]; time 303 sec, [B]0 = 250, replicates 1-3): 237.095 and 234.981 and 237.103
- remaining [B] ([1]; time 333 sec, [B]0 = 250, replicates 1-3): 235.255 and 233.898 and 236.026
- remaining [B] ([1]; time 364 sec, [B]0 = 250, replicates 1-3): 234.038 and 233.014 and 234.41
- remaining [B] ([1]; time 394 sec, [B]0 = 250, replicates 1-3): 232.874 and 231.988 and 233.73
- remaining [B] ([1]; time 424 sec, [B]0 = 250, replicates 1-3): 231.738 and 230.934 and 232.256
- remaining [B] ([1]; time 454 sec, [B]0 = 250, replicates 1-3): 230.764 and 230.107 and 231.378
- remaining [B] ([1]; time 485 sec, [B]0 = 250, replicates 1-3): 229.871 and 229.167 and 230.13
- remaining [B] ([1]; time 515 sec, [B]0 = 250, replicates 1-3): 228.978 and 228.226 and 228.94
- remaining [B] ([1]; time 545 sec, [B]0 = 250, replicates 1-3): 227.95 and 227.314 and 227.948
- remaining [B] ([2]; Replicate 1, 723 sec, [B]0 = 250): 243.908
- remaining [B] ([2]; Replicate 1, 903 sec, [B]0 = 250): 243.568
- remaining [B] ([2]; Replicate 1, 1084 sec, [B]0 = 250): 243.228
- remaining [B] ([2]; Replicate 1, 1265 sec, [B]0 = 250): 242.9
- remaining [B] ([2]; Replicate 1, 1445 sec, [B]0 = 250): 242.598
- remaining [B] ([2]; Replicate 1, 1626 sec, [B]0 = 250): 242.232
- remaining [B] ([2]; Replicate 1, 1806 sec, [B]0 = 250): 241.905
- remaining [B] ([2]; Replicate 1, 1988 sec, [B]0 = 250): 241.539
- remaining [B] ([2]; Replicate 1, 2168 sec, [B]0 = 250): 241.224
- remaining [B] ([2]; Replicate 1, 2349 sec, [B]0 = 250): 240.884
- remaining [B] ([2]; Replicate 1, 2530 sec, [B]0 = 250): 240.607
- remaining [B] ([2]; Replicate 1, 2710 sec, [B]0 = 250): 240.229
- remaining [B] ([2]; Replicate 2, 542 sec, [B]0=250): 245.363
- remaining [B] ([2]; Replicate 2, 723 sec, [B]0=250): 245.048
- remaining [B] ([2]; Replicate 2, 903 sec, [B]0=250): 244.733
- remaining [B] ([2]; Replicate 2, 1084 sec, [B]0=250): 244.393
- remaining [B] ([2]; Replicate 2, 1265 sec, [B]0=250): 244.09
- remaining [B] ([2]; Replicate 2, 1445 sec, [B]0=250): 243.737
- remaining [B] ([2]; Replicate 2, 1626 sec, [B]0=250): 243.435
- remaining [B] ([2]; Replicate 2, 1806 sec, [B]0=250): 243.107
- remaining [B] ([2]; Replicate 2, 1988 sec, [B]0=250): 242.78
- remaining [B] ([2]; Replicate 2, 2168 sec, [B]0=250): 242.452
- remaining [B] ([2]; Replicate 2, 2349 sec, [B]0=250): 242.137
- remaining [B] ([2]; Replicate 2, 2530 sec, [B]0=250): 241.772
- remaining [B] ([2]; Replicate 2, 2710 sec, [B]0=250): 241.469
- remaining [B] ([2]; Replicate 3, 723 sec, [B]0=250): 245.156
- remaining [B] ([2]; Replicate 3, 903 sec, [B]0=250): 244.866
- remaining [B] ([2]; Replicate 3, 1084 sec, [B]0=250): 244.475
- remaining [B] ([2]; Replicate 3, 1265 sec, [B]0=250): 244.311
- remaining [B] ([2]; Replicate 3, 1445 sec, [B]0=250): 243.732
- remaining [B] ([2]; Replicate 3, 1626 sec, [B]0=250): 243.593
- remaining [B] ([2]; Replicate 3, 1806 sec, [B]0=250): 243.165
- remaining [B] ([2]; Replicate 3, 1988 sec, [B]0=250): 242.824
- remaining [B] ([2]; Replicate 3, 2168 sec, [B]0=250): 242.61
- remaining [B] ([2]; Replicate 3, 2349 sec, [B]0=250): 242.232
- remaining [B] ([2]; Replicate 3, 2530 sec, [B]0=250): 241.917
- remaining [B] ([2]; Replicate 3, 2710 sec, [B]0=250): 241.653
- remaining [B] [2, 3]: 241.388 and 239.977 and 241.154
- remaining [B] [2, 4]: 240.909 and 239.662 and 240.814
- remaining [B] [2, 5]: 240.708 and 239.321 and 240.524
- remaining [B] [2, 6]: 240.418 and 238.994 and 240.184
- remaining [B] [2, 7]: 240.077
Compound: O=C(CCl)Nc1ccccc1 [Compound C2]
- second-order ([1]; Replicate 1, time 576 sec, second-order plot value): 0.001085
- second-order ([1]; Replicate 1, time 606 sec, second-order plot value): 0.001131
- second-order ([1]; Replicate 2, time 576 sec, second-order plot value): 0.001046
- second-order ([1]; Replicate 2, time 606 sec, second-order plot value): 0.001115
- second-order ([1]; Replicate 3, time 576 sec, second-order plot value): 0.001037
- second-order ([1]; Replicate 3, time 606 sec, second-order plot value): 0.001084
- second-order ([1]; time 0 sec, replicates 1-3): 0.0001305 and 8.4046e-5 and 0.0001345
- second-order ([1]; time 30 sec, replicates 1-3): 0.000185 and 0.0001335 and 0.0002172
- second-order ([1]; time 60 sec, replicates 1-3): 0.0002407 and 0.0001994 and 0.0002516
- second-order ([1]; time 91 sec, replicates 1-3): 0.0002937 and 0.0002475 and 0.000301
- second-order ([1]; time 121 sec, replicates 1-3): 0.0003391 and 0.0002792 and 0.0003575
- second-order ([1]; time 151 sec, replicates 1-3): 0.0003777 and 0.0003079 and 0.0004037
- second-order ([1]; time 182 sec, replicates 1-3): 0.0004154 and 0.0003461 and 0.0004506
- second-order ([1]; time 212 sec, replicates 1-3): 0.0004473 and 0.0003719 and 0.0004982
- second-order ([1]; time 242 sec, replicates 1-3): 0.0004795 and 0.0004218 and 0.000548
- second-order ([1]; time 273 sec, replicates 1-3): 0.0005133 and 0.0004652 and 0.0005985
- second-order ([1]; time 303 sec, replicates 1-3): 0.0005489 and 0.0005414 and 0.0006431
- second-order ([1]; time 333 sec, replicates 1-3): 0.0005997 and 0.0006273 and 0.0006953
- second-order ([1]; time 364 sec, replicates 1-3): 0.0006774 and 0.0006854 and 0.0007385
- second-order ([1]; time 394 sec, replicates 1-3): 0.0007107 and 0.0007421 and 0.0007895
- second-order ([1]; time 424 sec, replicates 1-3): 0.0007842 and 0.0007984 and 0.0008427
- second-order ([1]; time 454 sec, replicates 1-3): 0.0008288 and 0.0008475 and 0.000885
- second-order ([1]; time 515 sec, replicates 1-3): 0.0009559 and 0.0009395 and 0.0009836
- second-order ([1]; time 545 sec, replicates 1-3): 0.001009 and 0.0009937 and 0.001032
- second-order [2, 3]: 0.0003773 and 0.0003667 and 0.0004313
- second-order [2, 4]: 0.0003928 and 0.0003885 and 0.000446
- second-order [2, 5]: 0.0004061 and 0.0003977 and 0.0004618
- second-order [2, 6]: 0.0004218 and 0.000411 and 0.0004772
- second-order [2, 7]: 0.0004369 and 0.0004267 and 0.0004915
- second-order ([2]; Time 3794 sec, [B]0 = 250, Replicates 1-3): 0.0004533 and 0.0004448 and 0.000507
- second-order ([2]; Time 3974 sec, [B]0 = 250, Replicates 1-3): 0.0004675 and 0.0004536 and 0.0005214
- second-order ([2]; Time 4155 sec, [B]0 = 250, Replicates 1-3): 0.0004823 and 0.0004725 and 0.0005334
- second-order ([2]; Time 4336 sec, [B]0 = 250, Replicates 1-3): 0.0004965 and 0.0004915 and 0.0005528
- second-order ([2]; Time 4516 sec, [B]0 = 250, Replicates 1-3): 0.0005127 and 0.0005034 and 0.0005668
- second-order ([2]; Time 4697 sec, [B]0 = 250, Replicates 1-3): 0.0005253 and 0.000516 and 0.0005808
- second-order ([2]; Time 4878 sec, [B]0 = 250, Replicates 1-3): 0.000541 and 0.0005322 and 0.0005962
- second-order ([2]; Time 5058 sec, [B]0 = 250, Replicates 1-3): 0.0005592 and 0.0005485 and 0.0006085
- second-order ([2]; Time 5239 sec, [B]0 = 250, Replicates 1-3): 0.0005708 and 0.0005619 and 0.0006247
- second-order ([2]; Time 5419 sec, [B]0 = 250, Replicates 1-3): 0.0005891 and 0.0005723 and 0.0006371
- second-order ([2]; Time 5600 sec, [B]0 = 250, Replicates 1-3): 0.0006027 and 0.0005925 and 0.000654
- second-order ([2]; Time 5781 sec, [B]0 = 250, Replicates 1-3): 0.0006182 and 0.000611 and 0.0006672
- second-order ([2]; Time 5961 sec, [B]0 = 250, Replicates 1-3): 0.0006343 and 0.000624 and 0.0006855
